In article PMC12005767 (Advanced Science, 2025):

What was measured:
HDAC1 = target: T1, HDAC1 (Homo sapiens, UniProt Q13547); assay: In vitro HDACs inhibition fluorescence assay, HDAC1; type: biochemical; details: mean ± SEM
T1 construct: purchased BPS Bioscience
Description: (§1) In Vitro HDACs Inhibition Fluorescence Assay: For the inhibitory activity against HDAC1‐10, enzymes were also procured from BPS Bioscience. The in vitro […] inhibition assays were conducted following the established method described previously.^[ [45] ^] The working concentrations of HDAC1‐10 were 4 × 10^−9 M. The fluorogenic substrate of HDAC1, 2, 3, and 6 was Boc‐Lys (acetyl)‐AMC, and the substrate of HDAC4, 5, 7, 8, 9, and 10 was Boc‐Lys (trifluoroacetyl) AMC. The developer solution consists of 30 mg mL^−1 trypsin and 5 × 10^−6 M TSA. A standing period of 30 min was sufficient before assessing the fluorescence intensity.

HDAC5 = target: T2, HDAC5 (Homo sapiens, UniProt Q9UQL6); assay: In vitro HDACs inhibition fluorescence assay, HDAC5; type: biochemical; details: mean ± SEM
T2 construct: purchased BPS Bioscience
T2 sequence (Q9UQL6 whole entry): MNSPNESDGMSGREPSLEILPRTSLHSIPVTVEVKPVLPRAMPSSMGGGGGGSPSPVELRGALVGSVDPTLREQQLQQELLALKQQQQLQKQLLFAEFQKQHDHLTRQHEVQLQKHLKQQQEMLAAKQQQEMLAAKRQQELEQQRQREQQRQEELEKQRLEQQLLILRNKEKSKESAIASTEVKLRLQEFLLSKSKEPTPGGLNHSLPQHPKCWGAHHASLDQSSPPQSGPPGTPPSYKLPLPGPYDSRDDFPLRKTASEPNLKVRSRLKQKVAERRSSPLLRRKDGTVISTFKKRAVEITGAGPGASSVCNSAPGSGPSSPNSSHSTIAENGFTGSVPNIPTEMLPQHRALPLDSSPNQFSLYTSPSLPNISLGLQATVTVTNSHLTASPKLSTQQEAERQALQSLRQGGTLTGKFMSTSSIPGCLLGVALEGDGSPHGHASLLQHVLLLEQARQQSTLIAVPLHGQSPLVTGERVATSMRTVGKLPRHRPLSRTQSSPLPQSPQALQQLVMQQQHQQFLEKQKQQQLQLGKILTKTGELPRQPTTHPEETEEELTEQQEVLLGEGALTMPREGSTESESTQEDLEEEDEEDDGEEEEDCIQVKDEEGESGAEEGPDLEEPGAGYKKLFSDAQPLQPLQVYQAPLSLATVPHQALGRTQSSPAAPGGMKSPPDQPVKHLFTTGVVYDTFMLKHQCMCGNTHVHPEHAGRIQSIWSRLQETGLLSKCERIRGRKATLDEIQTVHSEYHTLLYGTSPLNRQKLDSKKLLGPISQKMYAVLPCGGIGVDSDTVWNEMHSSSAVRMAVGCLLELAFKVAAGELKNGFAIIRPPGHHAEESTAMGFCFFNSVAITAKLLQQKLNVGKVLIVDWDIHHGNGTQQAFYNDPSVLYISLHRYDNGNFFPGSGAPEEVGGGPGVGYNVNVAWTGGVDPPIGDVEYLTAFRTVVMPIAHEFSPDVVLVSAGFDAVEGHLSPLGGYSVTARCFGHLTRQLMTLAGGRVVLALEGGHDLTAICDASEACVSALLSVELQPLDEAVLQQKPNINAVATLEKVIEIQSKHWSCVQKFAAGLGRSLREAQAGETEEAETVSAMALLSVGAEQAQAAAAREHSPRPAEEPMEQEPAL
Description: as §1

HDAC10 = target: T3, HDAC10 (Homo sapiens, UniProt Q969S8); assay: In vitro HDACs inhibition fluorescence assay, HDAC10; type: biochemical; details: mean ± SEM
T3 construct: purchased BPS Bioscience
T3 sequence (Q969S8 whole entry): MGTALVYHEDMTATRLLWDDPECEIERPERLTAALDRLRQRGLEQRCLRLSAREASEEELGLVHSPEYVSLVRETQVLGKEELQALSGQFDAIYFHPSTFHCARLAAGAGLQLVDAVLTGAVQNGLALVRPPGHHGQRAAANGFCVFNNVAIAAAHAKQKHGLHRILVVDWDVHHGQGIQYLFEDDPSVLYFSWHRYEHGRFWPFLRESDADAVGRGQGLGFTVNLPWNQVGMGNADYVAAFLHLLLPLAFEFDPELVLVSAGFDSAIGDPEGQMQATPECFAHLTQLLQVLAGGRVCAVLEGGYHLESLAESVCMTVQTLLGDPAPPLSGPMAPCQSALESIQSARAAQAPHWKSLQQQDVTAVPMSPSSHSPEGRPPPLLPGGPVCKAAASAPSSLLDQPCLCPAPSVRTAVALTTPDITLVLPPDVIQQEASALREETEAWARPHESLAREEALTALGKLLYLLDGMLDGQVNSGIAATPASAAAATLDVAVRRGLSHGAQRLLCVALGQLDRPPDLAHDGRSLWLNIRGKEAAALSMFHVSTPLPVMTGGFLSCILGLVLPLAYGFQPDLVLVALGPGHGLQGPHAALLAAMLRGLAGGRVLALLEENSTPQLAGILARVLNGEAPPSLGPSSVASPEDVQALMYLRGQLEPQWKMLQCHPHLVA
Description: as §1

[1] = test system: SREBP1c, FASN, SCD1, CPT1A, PGC1α, PPARα, p-AMPKα (Thr172), LKB1 in HepG2 cells; assay: Protein and mRNA expression and AMPKα phosphorylation in FFA-induced HepG2 cells; type: cell-based, human
Description: For the lipid accumulation experiment, HepG2 cells were incubated for 24 h in DMEM containing 0.5 × 10^−3 M of a mixture of free fatty acids (FFA; oleic acid: palmitic acid = 2:1) and 1% FFA‐free bovine serum albumin to induce intracellular lipid accumulation, together with B6 treatment.
(§2) Western blot was carried out as described.^[ [49] ^] In brief, samples were lysed with a lysis buffer. The same quantity of total proteins (40–60 µg) from each sample was separated on SDS‐PAGE followed by transfer onto a nitrocellulose filter membrane and incubation with the indicated antibodies. After incubation with secondary antibodies, the protein bands were visualized using a chemiluminescence imaging system. All samples in the same group were processed simultaneously.
(§3) Cells and liver tissues were extracted for total RNA. A reverse transcription kit was used to synthesize cDNA. qRT‐PCR was performed with the primers listed in Table S1 (Supporting Information) using the SYBR green PCR master mix. The coding sequence of the target gene was found in NCBI, and Primer3 (v.0.4.0) was used to design amplification primers. The results were normalized by β‐actin in the corresponding sample.

[2] = test system: MASLD mice (60 kcal% fat diet); assay: High fat diet-induced MASLD model in mice; type: in vivo, C57BL/6J mice
Description: For pharmacology experiments, mice were divided into five groups (n = 8 per group): control group (C), B6 10 mg kg^−1 group [B6 (10)], high fat diet group (H), HFD + 5 mg kg^−1 B6 group [HB6 (5)], and HFD + 10 mg kg^−1 B6 group [HB6 (10). The 60 kcal% fat diet (MD12033) used for establishing the MASLD model was purchased from Medicience (Yangzhou, China). The C and B6 (10) groups were fed a chow diet for 12 weeks, followed by gavage administration of vehicle and 10 mg kg^−1 B6 for the subsequent four weeks, respectively. The H, HB6 (5) and HB6 (10) groups were fed a 60 kcal% fat diet for 12 weeks, followed by gavage administration of vehicle, 5 mg kg^−1 B6 and 10 mg kg^−1 B6 for the subsequent four weeks, respectively.
TG, FFA, and TC kits were purchased from Solarbio (Beijing, China). The liver tissues from mice were homogenized and processed according to the instructions. […]
ALT, AST, ALP, TG, NEFA, CHO, LDL‐C, and HDL‐C were assessed using a Hitachi 7020 automatic analyzer (Hitachi, Tokyo, Japan). […]
Food intake, locomotor VO2, VCO2, and heat production were measured by the TSE system, and RER were calculated using the manufacturer's system software.
as §2, §3

[3] = FFA-induced HepG2 cells, 0.5 × 10^−6 M, 24 h
[4] = FFA-treated HepG2 cells, 0.5 × 10^−6 M, 24 h

T1 sequence (Q13547 whole entry): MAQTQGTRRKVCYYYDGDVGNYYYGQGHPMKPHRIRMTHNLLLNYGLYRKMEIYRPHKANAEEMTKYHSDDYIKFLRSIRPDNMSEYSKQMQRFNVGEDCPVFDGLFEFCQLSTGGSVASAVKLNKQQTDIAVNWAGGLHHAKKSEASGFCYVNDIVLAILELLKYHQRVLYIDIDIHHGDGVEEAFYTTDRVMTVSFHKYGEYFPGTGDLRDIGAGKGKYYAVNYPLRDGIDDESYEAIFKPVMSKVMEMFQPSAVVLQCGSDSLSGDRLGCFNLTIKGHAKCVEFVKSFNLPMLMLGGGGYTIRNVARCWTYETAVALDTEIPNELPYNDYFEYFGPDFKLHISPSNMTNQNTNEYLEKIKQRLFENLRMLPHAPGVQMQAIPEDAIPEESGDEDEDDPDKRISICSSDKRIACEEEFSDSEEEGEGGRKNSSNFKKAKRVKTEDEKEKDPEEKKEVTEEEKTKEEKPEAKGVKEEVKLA

CCCCCOCCCCCNNC(=O)c1ccc(CNC(=O)c2ccccc2)cc1 [B6]
IC50 (HDAC1): > 10 µM | IC50 (HDAC5): > 10 µM | IC50 (HDAC10): > 10 µM | LKB1 mRNA levels ([1]; FFA-induced HepG2 cells): increase in LKB1 mRNA levels | mRNA levels of CaMKKβ and TAK1 ([1]; FFA-induced HepG2 cells): did not exhibit significant changes | protein and mRNA expression of CPT1A, PGC1α and PPARα [1, 3]: upregulation of protein and mRNA expression | protein and mRNA expression of SREBP1c, FASN and SCD1 [1, 3]: reduction of protein and mRNA expression | phosphorylation of AMPKα at Thr172 [1, 4]: restores the phosphorylation level | protein expression of LKB1 and p-LKB1 [1, 4]: increase LKB1 expression | body weight, chow diet (C group vs B6 (10) group) ([2]; 10 mg kg^−1 p.o., chow diet): no significant differences in body weight | body weight of high fat diet mice ([2]; 5 or 10 mg kg^−1 p.o., final 4 weeks, dose-dependent): reduction in body weight | blood lipids NEFA, CHO, LDL-C ([2]; HFD mice): reduce the elevated levels of blood lipids | glucose tolerance test and insulin tolerance test ([2]; HFD mice): improved glucose tolerance and insulin resistance | phosphorylation of AMPKα at Thr172 in mouse liver ([2]; HFD mice): restores the phosphorylation level | serum ALT, AST and ALP (liver damage) ([2]; HFD mice): alleviate liver damage | serum HDL-C ([2]; HFD mice): no significant effect | liver size and weight, body fat mass ([2]; HFD mice, 5 or 10 mg kg^−1 p.o.): effectively controlled | hepatic lipid content (TG, FFA, TC) ([2]; HFD mice, 5 or 10 mg kg^−1 p.o., dose-dependent): reduction in hepatic lipid content | O2 consumption (VO2), CO2 production (VCO2) and heat ([2]; HFD mice, compared to H group): increase | liver protein and mRNA levels of CPT1A, PGC1α and PPARα ([2]; HFD mice, compared to H group): restored | respiratory exchange ratio (RER) ([2]; HFD mice, metabolic cages): slight increase in RER value | liver protein and mRNA expression of SREBP1c, FASN and SCD1 ([2]; HFD mice, dose-dependent): downregulation | food intake of mice ([2]; mouse, in vivo): no effect on food intake
